Twelve compounds from ChEMBL document CHEMBL4342418, “1,2,3-Triazole-containing hybrids as potential anticancer agents: Current developments, action mechanisms and structure-activity relationships” (Eur J Med Chem, 2019) can be followed below.

Test [1] relates to HT-29. The test is described as follows: Antiproliferative activity against human HT-29 cells assessed as reduction in cell viability after 48 hrs by MTT assay. Type of test: functional, cell-based. The note with it: HT-29, 48 h.
Test [2] concerns PC-3. The test is described as follows: cells. Conditions: Homo sapiens, PC-3, 48 h. The class given is functional, cell-based.
Description: Antiproliferative activity against human PC3 cells assessed as reduction in cell viability after 48 hrs by MTT assay
Test [3] has as its system U-87 MG. The test is described as follows: Antiproliferative activity against human U87MG cells assessed as reduction in cell viability after 48 hrs by MTT assay. Type of test: functional, cell-based, U-87MG ATCC.
Test [4] has as its system A549. The test is described as follows: Antiproliferative activity against human A549 cells assessed as reduction in cell viability after 48 hrs by MTT assay. Type of test: functional, cell-based. The note with it: A549, 48 h.
Test [5] deals with C2C12. The test is described as follows: Cytotoxicity against mouse C2C12 cells assessed as reduction in cell viability after 48 hrs by MTT assay. Type of test: cell-based. The note with it: C2C12, 48 h.
Test [6] has as its system HCT-116. The test is described as follows: Antiproliferative activity against human HCT116 cells assessed as reduction in cell viability after 48 hrs by MTT assay. The class given is functional, cell-based. The note with it: HCT-116, 48 h. (Formazan colour is commonly taken as a measure of viable cells.)
Test [7] deals with MCF7. The test is described as follows: Antiproliferative activity against human MCF7 cells assessed as reduction in cell viability after 48 hrs by MTT assay. The class given is functional, cell-based. The note with it: MCF7, 48 h.
Test [8] concerns SK-BR-3. The test is described as follows: Antiproliferative activity against human SKBR3 cells assessed as reduction in cell viability after 72 hrs by MTT assay. The class given is functional, cell-based. Conditions: SK-BR-3, 72 h.
Test [9] concerns KG-1a. The test is described as follows: Antiproliferative activity against human KG1a cells assessed as reduction in cell viability after 72 hrs by MTT assay. The class given is functional, cell-based.
Test [10] relates to SUM-159-PT. The test is described as follows: Antiproliferative activity against human SUM159 cells assessed as reduction in cell viability after 72 hrs by MTT assay. Type of test: functional, cell-based.
In test [11] the test system is A549. The test is described as follows: cells. Type of test: functional, cell-based. Conditions: Homo sapiens.
Description: Antiproliferative activity against human A549 cells by MTT assay
Test [12] has as its system HT-29. The test is described as follows: Antiproliferative activity against human HT-29 cells by MTT assay. Type of test: functional, cell-based.
Test [13] concerns MCF7. The test is described as follows: cells. Type of test: functional, cell-based. The note with it: Homo sapiens.
Description: Antiproliferative activity against human MCF7 cells by MTT assay
The test system of test [14] is MCF-10A. The test is described as follows: Cytotoxicity against human MCF10A cells by MTT assay. The class given is cell-based.
The test system of test [15] is MV4-11. The test is described as follows: Antiproliferative activity against human MV4-11 cells by MTT assay. Type of test: functional, cell-based.
The subject of test [16] is DU-145. The test is described as follows: Antiproliferative activity against human DU145 cells by MTT assay. The class given is functional, cell-based.
Test [17] deals with Caco-2. The test is described as follows: Antiproliferative activity against human Caco2 cells assessed as reduction in cell viability after 72 hrs by MTT assay. The class given is functional, cell-based. Conditions: Caco-2, 72 h.
The test system of test [18] is HeLa. The test is described as follows: Antiproliferative activity against human HeLa cells assessed as reduction in cell viability after 72 hrs by MTT assay. Type of test: functional, cell-based.
A short description of test [19]: Cytotoxicity against dog MDCK1 cells assessed as reduction in cell viability after 72 hrs by MTT assay. Type of test: cell-based. Conditions: Canis lupus familiaris, MDCK1, 72 h.
For test [20], the system named is K562. The test is described as follows: Antiproliferative activity against human K562 cells assessed as reduction in cell viability after 72 hrs by MTT assay. Type of test: functional, cell-based. The note with it: K562, 72 h.
The test system of test [21] is MDA-MB-231. The test is described as follows: Antiproliferative activity against human MDA-MB-231 cells assessed as reduction in cell viability after 48 hrs by MTT assay. The note with it: MDA-MB-231, 48 h. Type of test: functional, cell-based.
Test [22] has as its system HEK293. The test is described as follows: Cytotoxicity against HEK293 cells assessed as reduction in cell viability after 48 hrs by MTT assay. Type of test: cell-based. Conditions: Homo sapiens, HEK293, 48 h.
Test [23] concerns DU-145. The test is described as follows: Antiproliferative activity against human DU145 cells assessed as reduction in cell viability after 48 hrs by MTT assay. Conditions: DU-145, 48 h. Type of test: functional, cell-based.

As a reminder, the IC50 is the point on the concentration scale where inhibition reaches its midpoint. `COc1ccc(Cn2cc(C(=O)c3cn(-c4ccccc4)nc3-c3ccc(Cl)cc3)nn2)cc1OC`: the IC50 in [1], in [2], in [3] and in test [4] was 0.86 to 3.71 µM throughout.

For the compound `COc1ccc(Cn2cc(C(=O)c3cn(-c4ccccc4)nc3-c3ccc(F)cc3)nn2)cc1OC`, the IC50 in test [1], in test [2], in test [3] and in test [4] was 0.86 to 3.71 µM in each case.

Turning to `COc1ccc(-c2nn(-c3ccccc3)cc2C(=O)c2cn(Cc3ccc(OC)c(OC)c3)nn2)cc1`, the IC50 in [1], in test [2], in [3] and in test [4] was 0.86 to 3.71 µM throughout.

As for `O=C(Nc1ccc(-n2cc(Oc3ccc(-c4cc(-c5ccc(Oc6cn(-c7ccc(NC(=O)[C@@H]8CCCN8)cc7)nn6)cc5)cc(-c5ccc(Oc6cn(-c7ccc(NC(=O)[C@@H]8CCCN8)cc7)nn6)cc5)c4)cc3)nn2)cc1)[C@@H]1CCCN1`, the results for the IC50 in test [5], in test [6] and in test [7] were above 40 µM, 7.1 to 13.4 µM and 7.1 to 13.4 µM, respectively.

On to `Fc1cccc(COc2ccc(Nc3ncnc4ccc(-n5cc(CN6CCCC6)nn5)cc34)cc2Cl)c1`, for which the IC50 in test [8], in [9] and in test [10] was 2.06 to 7.47 µM each time.

As to `CN(C)CCCOc1cc(C(=O)NCc2cn(-c3cccc(NC(=O)[C@@H]4CCCN4)c3)nn2)nc(C(=O)NCc2cn(-c3cccc(NC(=O)[C@H]4CCCN4)c3)nn2)c1`, the IC50 is above 40 µM in test [5], 1.3 µM in test [6] and 1.7 µM in [7].

Take `C=CCC1CN2CCC1CC2[C@@H](c1ccnc2ccc(OC)cc12)n1cc(-c2ccc3ccccc3n2)nn1` (some centres undefined): the IC50 in test [11], in test [12], in [13], in test [14], in [15] and in [16] was 0.53 to 14.6 µM in each case.

In the case of `COc1ccc(-c2cn(Cc3cc(=O)oc4cc(O)c(O)cc34)nn2)cc1`, the IC50 was 9.7 to 81.9 µM in [17], 9.7 to 81.9 µM in [18], 36.7 to 46 µM in [19] and 9.7 to 81.9 µM in [20].

As for `COc1cc(-c2ccc(Cn3cc(C(=O)c4c(-c5ccccc5)nc5ccccn45)nn3)cc2)cc(OC)c1OC`, the IC50 in [6] was 0.51 to 3.98 µM; in test [21] it was 0.51 to 3.98 µM; in test [22] it was 63.5 µM; in test [23], 0.51 to 3.98 µM; in [4] it was 0.51 to 3.98 µM.

Consider `COc1cccc(-c2cn(Cc3cc(=O)oc4cc(O)c(O)cc34)nn2)c1`, for which the IC50 is 9.7 to 81.9 µM in test [17], 9.7 to 81.9 µM in test [18], 36.7 to 46 µM in test [19] and 9.7 to 81.9 µM in test [20].

Consider `CN(C)CCCOc1cc(C(=O)NCc2cn(-c3ccc(NC(=O)[C@@H]4CCCN4)cc3)nn2)nc(C(=O)NCc2cn(-c3ccc(NC(=O)[C@H]4CCCN4)cc3)nn2)c1`, for which the IC50 in test [5] was above 40 µM; in test [6] it was 15.1 µM; in test [7] it was 14.4 µM.

As for `C=CCC1CN2CCC1CC2[C@H](O)c1cc(-c2cn(-c3ccccc3)nn2)nc2ccc(OC)cc12` (some centres undefined), the IC50 in [11], in test [12], in [13], in test [14], in test [15] and in [16] was 0.53 to 6.4 µM throughout.
